Literature values in patent US20170196794A1, “Oral Composition” (Kao Corporation, priority 2014, published 2017).

Settings: 20° C.

Row | solubility in water [% by mass] | Compound
1 | 33 | OC[C@@H](O)[C@@H](O)CO [erythritol]
2 | 72 | OC[C@@H](O)[C@@H](O)[C@H](O)[C@@H](O)CO [sorbitol]
3 | 66 | OC[C@@H](O)[C@H](O)[C@@H](O)CO [xylitol]
4 | 60 | OC[C@@H](O)[C@@H](O[C@H]1O[C@H](CO)[C@@H](O)[C@H](O)[C@H]1O)[C@H](O)[C@@H](O)CO [maltitol]
5 | 18 | OC[C@@H](O)[C@@H](O)[C@H](O)[C@H](O)CO [mannitol]
